| Structure (SMILES) | melting point [°C] |
| --- | --- |
| O=[N+]([O-])c1cc(S(=O)(=O)N2CCOCC2)ccc1O | 217 to 219 |
| COc1ccccc1NC(=O)c1ccccc1NC(=O)CCC(=O)O | 127 to 129 |
| Nc1cccc2c1C(=O)NC2=O | 268 to 270 |
| CC(C)n1ncc2cc(S(N)(=O)=O)ccc21 | 168 to 170 |
| NNc1ccc([N+](=O)[O-])cn1 | 194 to 196 |
| Cc1cccc([N+](=O)[O-])c1I | 67 to 69 |
| N#CCc1ccc([N+](=O)[O-])cn1 | 62 to 64 |
| CN1CN=C(S)NC1 | 173 to 177 |
| CCN(CC)S(=O)(=O)c1ccc2c(c1)CCN2 | 80 to 82 |
| O=C1NC(=O)N(C2CCCCC2)C1=O | 187 to 189 |
| O=C(O)C12CC3CC(C1)CC(C(F)(F)F)(C3)C2 | 138 to 140 |
| COC(=O)c1sc(-c2ccccc2Cl)cc1N | 109 to 111 |
| CS(=O)(=O)c1ccc(OCCCC(=O)O)cc1 | 150 to 152 |
| O=C(O)C1CCCN1S(=O)(=O)c1cccc([N+](=O)[O-])c1 (stereo unspecified) | 182 to 184 |
| N#Cc1ccc(F)c(CBr)c1 | 44 to 46 |
| O=C(O)c1cnns1 | 103 to 105 |
| NC(=O)Nc1ccc(Br)cc1C(=O)O | 171 to 173 |
| NS(=O)(=O)c1cc(C(=O)O)cc2c1CCC2 | 299 to 301 |
| O=C(CCl)c1ccc(Oc2ccccc2)cc1 | 54 to 56 |

| Structure (SMILES) | melting point [°C] |
| --- | --- |
| O=C(O)c1ccc(Nc2ccc(F)c(F)c2)c([N+](=O)[O-])c1 | 237 to 239 |
| Nc1cc(-c2cccc(F)c2)no1 | 103 to 105 |
| Clc1nnc(-c2ccccc2)c2ccccc12 | 156 to 158 |
| Cc1cc(C)c(C(=O)O)o1 | 145 to 147 |
| CC1CCc2c(sc(N)c2C#N)C1 (stereo unspecified) | 145 to 147 |
| O=[N+]([O-])c1ccc(S(=O)(=O)Cl)c(F)c1 | 72 to 74 |
| O=C(O)C=CC1=CCCC1 | 147 to 149 |
| O=C(O)C=CC(=O)NCc1ccncc1 | 139 to 141 |
| CC(C)C(C)(C#N)NC(=O)CCl (stereo unspecified) | 71 to 73 |
| CN(CC(=O)NC(C)(C)C)CC(N)=S | 123 to 125 |
| CC(Oc1ccc(F)cc1Cl)C(=O)O (stereo unspecified) | 72 to 74 |
| Cn1c(S)nnc1-c1ccco1 | 179 to 181 |
| O=C(O)C1CCN(c2ccc(Cl)cn2)CC1 | 152 to 154 |
| COC(=O)c1ccncc1C(=O)OC | 55 to 57 |
| O=C1CC(c2ccccc2)C(=O)N1 (stereo unspecified) | 72 to 74 |
| CCCCn1c(=O)c(CCC(=O)O)nc2ccccc21 | 146 to 148 |
| Cc1nc(-c2ccccc2Br)sc1C(C)O (stereo unspecified) | 79 to 81 |
| Cn1cnnc1Sc1ccc(N)cc1 | 153 to 157 |
| O=C1COc2cc(F)ccc2N1 | 206 to 208 |

| Structure (SMILES) | melting point [°C] |
| --- | --- |
| CC(C)(C)OC(=O)N1CCNC(C#N)C1 (stereo unspecified) | 109 to 111 |
| NC(=O)c1ccccc1OCCO | 112 to 114 |
| CCn1c(C(=O)O)cc2ccccc21 | 177 to 179 |
| N#CCCn1cnc2ccccc2c1=O | 142 to 144 |
| NC(C(=O)O)c1ccccc1Br (stereo unspecified) | 199 to 201 |
| NNC(=O)c1cc(N)cc([N+](=O)[O-])c1 | 227 to 229 |
| Cc1ccc(NS(=O)(=O)c2ccc(C(=O)O)cc2)cc1 | 285 to 287 |
| O=C(O)c1cnc2c(c1)c(C1CC1)nn2-c1ccccc1 | 250 to 252 |
| O=C(Nc1cccc(C(=O)O)c1)Nc1ccc(Cl)c(Cl)c1 | 279 to 281 |
| CCCOc1ccc(C(=O)NN)cc1 | 88 to 90 |
| CNc1ccc(-c2ccccc2)nn1 | 157 to 159 |
| NS(=O)(=O)c1c[nH]c(C(=O)O)c1 | 229 to 231 |
| Cc1ncncc1C(=O)O | 174 to 176 |
| NS(=O)(=O)c1ccc(C(=O)CBr)cc1 | 149 to 151 |
| CC1NC(=O)c2ccccc2NC1=O (stereo unspecified) | 337 to 339 |
| N#CCC(=O)N(CC(F)(F)F)C1CC1 | 69 to 71 |
| CC(C)c1cc(C(=O)O)c2ccccc2n1 | 141 to 143 |
| CC(Cl)C(=O)N1CCc2ccccc21 (stereo unspecified) | 106 to 108 |

Source: a melting point compilation (Tetko et al.)
